Results from patent US9586999B2, “Methods and compositions related to improving properties of pharmacological agents targeting nervous system” (University of Utah Research Foundation, priority 2006, dated 2017).
“Also recorded” adds a separate entry of the source.

Key:
sound-induced seizures = experiment: Frings audiogenic seizure-susceptible mouse model of reflex epilepsy; format: in vivo; conditions: i.p., 4 mg/kg for time course, dose-response 1 h after dosing
Excerpt: (§1) The ability of individual modified peptides to prevent seizures induced by sound in the AGS-susceptible Frings mouse model can be assessed at the time of peak effect (White et al., 1992). For this test, individual mice are placed into a plexiglass cylinder (diameter, 15 cm; height, 18 cm) fitted with an audio transducer (Model AS-ZC; FET Research and Development, Salt Lake City, Utah), and exposed to a sound stimulus of 110 decibels (11 KHz) delivered for 20 seconds. Sound-induced seizures are characterized by wild running followed by loss of righting reflex with forelimb and hindlimb tonic extension. Mice not displaying hindlimb tonic extension are considered protected.
The two modified galanin analogs (GAL-BBB1 and GAL-BBB2) were administered i.p. to a group of Frings audiogenic seizure susceptible mice in a dose of 4 mg/kg. At various times after administration (i.e., 15, 30, 60, 120, and 240 min) each mouse was placed into a cylindrical test chamber fitted with an audio transducer and challenged with a high-intensity sound stimulus (110 dB, 11 KHz for 20 sec). Animals not displaying tonic hind-limb extension were considered protected. […] In a subsequent study, anticonvulsant efficacy was quantitated at the time to peak effect (i.e., 1 h) in a dose-response study.
as §1, with “analogs” for “peptides”
At various times after administration (i.e., 15, 30, 60, 120, and 240 min) each mouse was placed into a cylindrical test chamber fitted with an audio transducer and challenged with a high-intensity sound stimulus (110 dB, 11 KHz for 20 sec).

6 Hz limbic seizures = experiment: 6 Hz limbic (psychomotor) seizure test; format: in vivo, mouse
Excerpt: Mice not displaying limbic seizures were considered protected.
As mentioned above, the 6 Hz seizure becomes more resistant to block by antiepileptic drugs as the current is increased from 22 mA to 44 mA.

[1] = test system: tonic-extension (maximal electroshock) seizures; experiment: Maximal electroshock seizure (MES) test; format: in vivo, mouse; conditions: 4 mg/kg i.p., tested one hour later
Excerpt: Abolition of the hindleg tonic extensor component of the seizure is used as the endpoint.

[2] = test system: formalin-induced paw licking; experiment: Mouse formalin test of inflammatory pain; format: in vivo
Experimental: An injection of 0.5% formalin is made into the planter region of a mouse right hind paw. This elicits a distinct biphasic behavioral profile characterized by the mouse licking the affected paw. Immediately following the injection the mouse licks the paw for about 10 minutes. This is phase 1 (acute) and is followed by a brief latent period where there is little behavioral activity. A more prolonged period of about 20 to 30 minutes of paw licking ensues which constitutes phase 2 (inflammatory).
Prior to the administration of the active peptide, drug or vehicle each mouse undergoes a 15-minute conditioning period in one of several 6″ tall plexiglass observation tubes (4″ diameter) that are placed in front of a mirror. […] One hour after treatment, formalin was injected sub-dermally (20 μl; 27 gauge needle) into the plantar surface of the right hind foot. The bevel of the needle is placed facing down toward the skin surface. Following the injection of the formalin each animal is observed for first 2 minutes of each 5 minute epoch for a total of 45 minutes. The cumulative length of licking for each 2 minute time period was measured. An animal receiving the requisite volume of vehicle was alternated with each mouse given GAL-BBB2, Gal 1-16, or gabapentin. Animals were euthanized following the conclusion of the experiment.
Area under the curve (AUC) determination was made using the GraphPad Prism Version 3.03. Total AUC is calculated for both the test and control groups for both the acute and inflammatory phases. The AUC for individual animals for each phase is also calculated and converted to percentage of total AUC of control. The average percentages and SEM for both the drug treated and control were calculated and tested for significant difference.

mechanical allodynia = experiment: Sciatic nerve ligation model of chronic pain, mechanical allodynia (Von Frey); format: in vivo, rat; conditions: 2 mg/kg i.p.
Experimental: Just prior to surgery, rats are treated subcutaneously with 0.1 to 0.5 mg/kg of the long acting opiate buprenorphine. Rats are then anesthetized with pentobarbital and the depth of anesthesia monitored by their response to a tail pinch and observation of the depth of respiration. Sterile technique was used throughout the surgery.
The upper thigh of each rat was shaved and wiped off with ethanol and betadine. A small incision was made in the skin and through the underlying muscle of the upper thigh until the sciatic nerve was exposed. The nerve was then separated from the surrounding connective tissue and slightly elevated by a pair of fine, curved forceps. Approximately ⅓ to ½ of the nerve was then tied off by passing a needle and nylon suture (7.0) through the nerve. […] Rats were closely monitored daily for the development of infection or untoward effects of the surgery.
After an appropriate time for recovery (e.g., 7-14 days) the animals were tested for the development of mechanical allodynia (pain response to a non-noxious stimulus). […] After a 30-60 minute acclimation period, a baseline mechanical sensitivity was determined. […] This procedure was repeated until a 50% threshold for withdrawal could be determined.

## Sar-Trp-Thr-Leu-Asn-Ser-Ala-Gly-Tyr-Leu-Leu-Gly-Pro-Lys-Lys-(Lys-palm)-Lys-NH2 [NAX 5055]
sound-induced seizures; 4 mg/kg
  anticonvulsant effect against sound-induced seizures: effective; also recorded: time-dependent anticonvulsant activity; also recorded: dose-dependent protection
sound-induced seizures; listed as GAL-BBB2, 4 mg/kg
  anticonvulsant effect against sound-induced seizures: dose-dependent effect
sound-induced seizures; listed as Gal BBB-2, 4 mg/kg
  anticonvulsant effect against sound-induced seizures: time (inset) and dose-dependent protection
6 Hz limbic seizures; 4 mg/kg
  activity in pharmaco-resistant seizure model: active
6 Hz limbic seizures; 6 Hz (32 mA), i.c.v.
  potency and efficacy relative to native peptide fragment: more potent and efficacious than the native peptide fragment GAL(1-16)
6 Hz limbic seizures; 2 h, 4 mg/kg i.p.
  % Protection at 2 hours afforded by a dose of 4 mg/kg, i.p.: 100%
6 Hz limbic seizures; 4 h, 4 mg/kg i.p.
  % Protection at 4 hours afforded by a dose of 4 mg/kg, i.p.: 0%
6 Hz limbic seizures; i.p., SAR analogs
  ED50 in the 6 Hz limbic seizure model (in Table 14 in parentheses): (0.8 mg/kg)
6 Hz limbic seizures; intracerebroventricular, 6 Hz (32 mA)
  ED50 following i.c.v. administration: 0.07 nmol
6 Hz limbic seizures; s.c., 32 mA, 60 min, CF-1 mice
  anticonvulsant activity following subcutaneous administration: preserved; also recorded: retained
[1]
  activity in maximal electroshock seizure test: completely inactive
[2]; 5 mg/kg
  effect compared with gabapentin: equivalent to a 10 mg/kg dose of gabapentin
[2]; 0.52-5 mg/kg i.p., 1 h before formalin
  paw licking, acute and inflammatory phase: dose-dependent reduction in paw licking
[2]; mouse formalin assay
  phase II response at the active dose: (“flat phase II”)
[2]; mouse formalin assay of inflammatory pain
  Active at: 5 mg/kg
[2]; mouse, in vivo
  potency in mouse formalin assay: potent
Mechanical allodynia; 30 min to 6 h
  threshold for mechanical allodynia: time-dependent increase in the threshold for mechanical allodynia
Mechanical allodynia; listed as GAL-BBB2
  potency relative to morphine (2 mg/kg) and gabapentin (40 mg/kg): equi-potent to morphine; also recorded: several fold more potent that gabapentin
